Patent US11952364B2, “TRK inhibitors useful as anticancer drugs” (TYLIGAND BIOSCIENCE (SHANGHAI) LIMITED, priority 2018, dated 2024)
Like-named read-outs stand apart in the source and are kept apart here.

Test system: KM12 cells
Test: Proliferation of KM12 cells (CellTiter-Glo)
Assay type: cell-based, human
Conditions: Homo sapiens, separate test, read-out: KM-12, IC50
Source text: KM12 is a human colon cancer cell line in which NTRK1 is highly expressed, and gene fusion occurs with TPM3 to form TPM3-NTRK1. • [Test method]: Promega's CellTiter-Glo® Luminescent Cell Viability Assay kit was used to evaluate the inhibitory activity of the compounds on the proliferation of KM12 cells. • [Instrument]: Spectramax M3 multifunctional microplate reader from Molecular Devices. • [Test materials]: KM12 cell line (ATCC, item number CRL-12496), 96-well transparent flat-bottomed black-walled cell culture plate (Corning, item number #3603), RPMI-1640 media (GE, cat #SH30027.01), Fetal Bovine Serum FBS (Thermo Fisher, cat #10099-141), CellTiter-Glo® Luminescent Cell Viability Assay Kit (Promega, cat #G7572), PBS (Solarbio, cat #P1020), Trypsin (Thermo Fisher, cat #25200072), DMSO (Sigma, cat #D2650). • [Experimental procedure]: When resuscitating KM12 cells, the freezing tube was quickly shaken in a 37° C. water bath to melt within 1 minute. The thawed cell suspension was mixed uniformly with RPMI1640 medium containing 10% FBS, centrifuged at 1000 rpm for 5 minutes, and the supernatant discarded. 5 mL of complete medium (RPMI1640 medium with 10% FBS) was taken to resuspend the cell pellets, charged into a cell culture flask with a bottom area of 25 cm^2, and incubated in a cell incubator at 37° C., 95% humidity and 5% CO2. Cells were allowed to passage when the cell confluence rate reached about 80%. For cell passage, the old medium was discarded, and the cells were washed twice with PBS, and 0.5 mL trypsin was added to digest the cells. Upon dispersing into single cells and exfoliating from the bottom of the cell culture flask, 4.5 mL of new complete medium was added to terminate the digestion. After pipetting the cell suspension evenly, 1/5 of the cell suspension was kept and added with 4 mL of new complete medium, and after pipetting evenly, the cell flask was placed in the cell incubator for further culturing. Cell plating was performed when the cell confluence rate reached about 80% again. For cell plating, 1/5 of the cell suspension was kept for further culturing as in the cell passage method, and the remaining 4/5 of the cell suspension was placed in a 15 mL centrifuge tube, detected for cell viability by Trypan blue exclusion method to ensure that cell viability was above 90%. A cell suspension with a density of 3.33×10^4 viable cells/mL was prepared with complete medium, and 90 μL of such cell suspension was added to a 96-well cell culture plate to obtain a cell density of 3000 viable cells/mL in the cell culture plate. A control group containing no cells, no compound and only complete medium (i.e. culture medium control) and a control group containing no compound but containing cells (i.e. cell control) were set. The cell plate was placed in a cell incubator overnight.
The 10 mM compound stock solution in DMSO was first serially diluted with DMSO at a dilution factor of 3.16 times, to obtain 9 concentrations, and the 10th concentration was set as DMSO control without compound. Then, PBS was used to dilute the DMSO solutions of compounds of different concentrations, at a dilution factor of 100 times, so that the DMSO concentration in the compound solution of each concentration was 1%. Finally, 10 μL of each of the above solutions was added to the corresponding cell culture plate, so that the initial compound concentration was 10 μM, with the remaining concentrations being successively diluted at a dilution factor of 3.16 times, and the DMSO content in the cell culture plate was 0.1%.
The cell plate was placed in a cell incubator and cultured for 72 hours. For endpoint detection, the CellTiter-Glo reagent was melted, and the cell plate was moved to room temperature to equilibrate for 30 minutes, added with 100 μL of CellTiter-Glo for each well, and shaken on an orbital shaker for 5 minutes to fully lyse the cells. […]

Molecule CCn1ncc2cc(Oc3ccc(NC(=O)c4ccc(C5CC5)n(-c5ccc(F)cc5)c4=O)cc3F)c(-c3cn[nH]c3)cc21 [Example 19, N-(3-fluoro-4-(1-ethyl-6-(1H-pyrazol-4-yl)-1H-indazol-5-yloxy)phenyl)-1-(4-fluorophenyl)-6-cyclopropyl-2-oxo-1,2-dihydropyridine-3-carboxamide] has an IC50 (KM12, Table 1-1) of 32 nM.
CC(C)Oc1ccc(C(=O)Nc2ccc(Oc3cc4cnn(C)c4cc3-c3cn[nH]c3)c(F)c2)c(=O)n1-c1ccc(F)cc1 [Example 16, N-(3-fluoro-4-(1-methyl-6-(1H-pyrazol-4-yl)-1H-indazol-5-yloxy)phenyl)-1-(4-fluorophenyl)-6-isopropoxy-2-oxo-1,2-dihydropyridine-3-carboxamide] showed an IC50 (KM12, Table 1-2) of 7 nM.
